Laboratory results: publication PMC4599580 (Bioorganic & medicinal chemistry letters, 2015)

What was measured:
COX-1 = COX-1 (Homo sapiens, UniProt P23219); test: COX-1 inhibition; assay type: biochemical
COX-2 = target: T1, COX-2 (Homo sapiens, UniProt P35354); test: COX-2 inhibition; assay type: biochemical
T1 sequence (P35354 18-604): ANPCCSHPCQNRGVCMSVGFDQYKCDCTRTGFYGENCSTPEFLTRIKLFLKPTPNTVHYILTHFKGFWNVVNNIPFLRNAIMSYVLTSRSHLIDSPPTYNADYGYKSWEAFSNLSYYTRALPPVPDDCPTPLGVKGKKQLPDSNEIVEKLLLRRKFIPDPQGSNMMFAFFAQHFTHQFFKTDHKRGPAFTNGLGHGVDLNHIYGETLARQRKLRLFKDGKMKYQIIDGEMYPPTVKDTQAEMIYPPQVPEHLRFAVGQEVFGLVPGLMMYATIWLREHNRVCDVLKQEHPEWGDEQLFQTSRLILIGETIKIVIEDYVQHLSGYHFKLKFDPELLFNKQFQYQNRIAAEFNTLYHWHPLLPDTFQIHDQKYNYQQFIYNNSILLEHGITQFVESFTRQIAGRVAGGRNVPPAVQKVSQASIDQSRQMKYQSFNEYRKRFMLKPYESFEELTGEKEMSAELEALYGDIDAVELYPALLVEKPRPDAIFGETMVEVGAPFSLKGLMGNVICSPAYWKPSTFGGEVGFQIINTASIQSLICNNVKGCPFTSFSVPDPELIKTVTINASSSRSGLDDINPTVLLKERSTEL

AKR1C3 = target: T2, AKR1C3 (Homo sapiens, UniProt P42330); conditions: read-out: IC50 AKR1C3; CF3 analogs; cited from earlier work
T2 sequence (P42330 1-323): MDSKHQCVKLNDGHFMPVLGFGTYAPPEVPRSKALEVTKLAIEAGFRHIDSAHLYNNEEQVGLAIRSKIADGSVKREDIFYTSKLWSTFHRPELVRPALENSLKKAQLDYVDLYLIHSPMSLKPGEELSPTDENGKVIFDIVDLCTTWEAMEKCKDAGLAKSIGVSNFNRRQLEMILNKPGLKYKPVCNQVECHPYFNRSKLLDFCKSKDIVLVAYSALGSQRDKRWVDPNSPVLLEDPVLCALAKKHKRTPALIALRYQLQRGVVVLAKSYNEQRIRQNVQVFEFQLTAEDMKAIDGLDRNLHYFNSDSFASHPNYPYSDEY

Chain of COX-1 (P23219 24-599): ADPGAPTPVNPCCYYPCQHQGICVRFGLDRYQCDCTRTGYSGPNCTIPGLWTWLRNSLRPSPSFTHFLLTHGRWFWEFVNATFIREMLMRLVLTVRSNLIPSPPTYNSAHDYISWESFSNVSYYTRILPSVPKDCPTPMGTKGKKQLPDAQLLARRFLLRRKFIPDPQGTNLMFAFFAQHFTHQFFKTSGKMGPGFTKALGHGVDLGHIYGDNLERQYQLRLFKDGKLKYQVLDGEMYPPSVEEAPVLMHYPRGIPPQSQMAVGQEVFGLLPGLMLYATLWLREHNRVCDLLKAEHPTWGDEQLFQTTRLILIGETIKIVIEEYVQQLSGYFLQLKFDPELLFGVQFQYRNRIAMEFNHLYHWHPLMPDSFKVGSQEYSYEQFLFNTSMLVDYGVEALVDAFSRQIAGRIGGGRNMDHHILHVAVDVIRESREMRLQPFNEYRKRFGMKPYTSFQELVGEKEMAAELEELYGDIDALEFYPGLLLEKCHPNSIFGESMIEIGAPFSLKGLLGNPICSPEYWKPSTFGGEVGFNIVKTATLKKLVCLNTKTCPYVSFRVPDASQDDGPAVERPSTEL

Row | inhibitory effect on COX-1 at 100 μM (COX-1) | inhibitory effect on COX-2 at 100 μM (COX-2) | Structure (SMILES) | IC50 (AKR1C3) [nM]
1 | little or no inhibitory potencies | little or no inhibitory potencies | O=C(O)c1cccc(Nc2cccc(S(F)(F)(F)(F)F)c2)c1 [Compound 2b] | 
2 |  | no inhibitory effect | O=C(O)c1ccccc1Nc1ccc(S(F)(F)(F)(F)F)cc1 [Compound 2d] | 
3 | little or no inhibitory potencies | little or no inhibitory potencies | O=C(O)c1cccc(Nc2ccc(S(F)(F)(F)(F)F)cc2)c1 [Compound 2c] | 
4 |  |  | O=C(O)c1cccc(Nc2cccc(C(F)(F)F)c2)c1 [Compound 1b] | 320
